Experimental data as given in US10786491B2, “Immunomodulation by IAP inhibitors” (Novartis AG, priority 2008, dated 2020).

Experiments:
[1] = test system: BALB/c spleen cells cultured with irradiated C57BL/6 spleen cells; assay: Allo-reactivity: six day mixed lymphocyte reaction and restimulation; format: cell-based, BALB/c mice; conditions: 500 nM, six days
Experimental: After six days, cultures were harvested and cytokine production and spleen cell proliferation was analyzed. […] Cytokines were measured in cell supernatants by ELISA. […] At the conclusion of the cultures described in FIG. 9A, total viable cells were counted by trypan blue exclusion and immune cell subsets were identified by flow cytometry using the markers indicated in FIG. 9B. […] Substantial B cell proliferation occurred in IAP inhibited cultures (FIG. 9B). The activation enhancing effects of IAP inhibition were readily reversed; in allo-reactive T cells, secondary stimulations with anti-CD3 in the absence of inhibitors led to equivalent responses regardless of the previous culture conditions (FIG. 10). Cells stimulated in a six day mixed lymphocyte reaction were recovered and restimulated with anti-CD3 for 48 hours. Cytokines were measured in culture supernatants by ELISA. Sample labels indicated in FIG. 10 refer to the treatment used during the primary stimulation.

[2] = test system: CD4+ T cells from MLIAP transgenic mice; assay: IL-2 production of ML-IAP transgenic CD4+ T cells (ELISA); format: cell-based, BALB/c mice; conditions: anti-CD3 and anti-CD28; 48 hours
Excerpt: Whether overexpression of ML-IAP, an endogenous SMAC binding protein, could alter the response of T cells to activating stimuli was also examined.

[3] = test system: CD4+ T cells from XIAP KO mice; assay: IL-2 production of XIAP knockout CD4+ T cells (ELISA); conditions: anti-CD3 and anti-CD28; 48 hours; versus LCV-843
[4] = test system: CD8+ T cells; assay: Cytokine production of stimulated CD8+ T cells (ELISA); format: cell-based, C57BL/6 mice; conditions: anti-CD3 and anti-CD28; 48 hours
Experimental: Because the observed effect of IAP inhibition in T cells could still depend on alterations in NKT cell function, the consequences of IAP inhibition were assessed in NKT cell deficient CD1d knockout C57BL/6 mice. […] The effect of IAP inhibition was not limited to CD4+ T cells, as CD8+ T cells similarly produced excess IFN-γ and IL-2 after stimulation in the presence of IAP inhibitors (FIG. 5).

[5] = test system: B cells; conditions: 500 nM; anti-IgM and anti-CD40; 96 hours; compared to control cells
Experimental: Because the JNK and NF-κB pathways play important roles in signaling down stream of a wide range of immune receptors, we analyzed the effect of IAP inhibitors in several additional immune populations. […] IL-6 was measured in the culture supernatant by ELISA.

[6] = test system: bone marrow derived dendritic cells; assay: IL-12 p40 production of bone marrow derived dendritic cells (ELISA); conditions: 500 nM; cluster disruption; 24 hours
[7] = test system: BALB/c splenic CD4+ T cells; assay: Survival and apoptosis of anti-CD3/anti-CD28 activated CD4+ T cells; format: cell-based, BALB/c mice
Experimental: The role of IAP family members in mature NKT cell survival was assessed. […] After 24 hours viable cells were quantified by trypan blue exclusion, and the resulting cell counts are depicted in FIG. 2A. Apoptotic cells were quantified in the cultures from FIG. 2A using flow cytometry with annexin V and 7-AAD (results are depicted in FIG. 2B).

[8] = test system: BALB/c spleen cells; assay: Cytokine secretion of α-galcer stimulated spleen cells (ELISA); format: cell-based, BALB/c mice; conditions: 500 nM, 48 hours, versus control compound
Experimental: In order to determine the functional consequences of IAP inhibition in NKT cells, spleen cells from BALB/c mice were stimulated with the NKT cell specific agonist α-galactosylceramide (α-galcer). […]. After 48 hours, cytokine levels were measured in the culture supernatants by ELISA, and the results are depicted in FIG. 3A (IFNγ) and FIG. 3B (IL-2). […].

[9] = test system: B16 mouse melanoma cells; assay: B16 vaccination and live tumor challenge in vivo; parameters: species or system mice; conditions: single oral dose 150 mg/kg in combination with irradiated B16 vaccine; compared with LBW-242 or vaccine alone; days 7-16
Experimental: . Irradiated B16 mouse melanoma cells (vaccine) were administered to mice on days −14 and −7 with or without a single oral dose of LBW-242 (150 mg/kg). Live B16 tumor cells were implanted into the mice on day 0 (challenge). Tumor volume was measured at 7, 10, 13 and 16 days following the live cell implant. […].

[10] = test system: splenic CD4+ T cells; assay: IL-2 production of anti-CD3/anti-CD28 stimulated CD4+ T cells (ELISA); format: cell-based, BALB/c mice
[11] = test system: JNK and NF-κB pathways; assay: Western blot of JNK phosphorylation and IκB degradation in stimulated CD4+ T cells; format: cell-based
Experimental: In order to investigate the mechanism linking IAP inhibition to enhanced, activation-dependent cytokine production, the effect of IAP inhibition on JNK phosphorylation and IκB degradation in stimulated CD4+ T cells was assessed by Western blot. […] Replicates were combined and cell lysates were analyzed by Western blot for the indicated proteins. PDI was used as a loading control.

[12] = versus control compound LCV-843
[13] = 500 nM, anti-CD3 and anti-CD28, 24 hours

## CN[C@H](C)C(=O)N[C@@H](C(=O)N1CCC2CCN(CCc3ccccc3)CC21)C1CCCCC1 (stereo in doubt) [LBW-242, N-[1-cyclohexyl-2-oxo-2-(6-phenethyl-octahydro-pyrrolo[2,3-c]pyridin-1-yl)-ethyl]-2-methylamino-propionamide]
[1]
  B cell proliferation: Substantial
  CD4 T cell proliferation: significant
[1]; [12]
  IFN-γ secretion: significantly enhanced
  IL-2 levels: significantly reduced
[2]
  reduced IL-2 secretion of ML-IAP transgenic T cells: could be modulated
[3]
  cytokine (IL-2) secretion of XIAP deficient T cells: only a small increase
[4]
  IFN-γ production: excess
  IL-2 production: excess
[5]
  IL-6 production: increased
[6]
  IL-12 p40 production, partially activated DCs: increased
[7]; 500 nM, 24 hours
  NKT cells in culture (anti-CD3 and α-galcer loaded CD1d tetramers): still detectable in culture at normal frequencies
[7]; [13]
  apoptosis (annexin V and 7-AAD): nor did it contribute to apoptosis
  total number of T cells (viable cells, trypan blue exclusion): did not alter
[7]; no stimulation
  apoptosis in the absence of stimulation: no discernible effect
[8]
  IFN-γ secretion: increased secretion
  IL-2 secretion: increased secretion
[9]
  tumor burden following challenge with live B16 cells: reduced
[10]; isotype control, no stimulation
  effects from IAP inhibition in the absence of stimulation: No effects
[10]; unfractionated BALB/c or C57BL/6 CD4+ T cells, anti-CD3 and anti-CD28, 48 hours
  IL-2 production: similar, dose-dependent effect
[11]; 500 nM
  bcl-10 levels in activated T cells: did not lead to a detectable change
[11]; 500 nM, anti-CD3 and anti-CD28, versus control compound LCV-843
  activation of JNK and NF-κB pathways (JNK phosphorylation, IκB degradation): activated more rapidly
[11]; no stimulation
  JNK phosphorylation and IκB degradation in the absence of stimulation: No changes
